Assay results as given in US9963462B2 (priority 2015, dated 2018).

Columns and labels:
[1] = test system: BH4 levels in SK-N-BE (2) cells; test: SKN-N-BE (2) cellular assay, BH4 levels by LC-MS; type: cell-based; conditions: Homo sapiens, SKNBE2, read-out: SK-N-BE(2) IC50, SK-N-BE (2) cells, BH4 levels by LC-MS
[2] = target: SNAP-hSPR (sepiapterin reductase, SPR) (Homo sapiens, UniProt P35270); test: biochemical; type: binding; conditions: terbium labelled SNAP-hSPR / SSZ labelled SNAP-EGFP; read-out: hTR-FRET IC50
SNAP-hSPR (sepiapterin reductase, SPR), sequence (P35270 whole entry): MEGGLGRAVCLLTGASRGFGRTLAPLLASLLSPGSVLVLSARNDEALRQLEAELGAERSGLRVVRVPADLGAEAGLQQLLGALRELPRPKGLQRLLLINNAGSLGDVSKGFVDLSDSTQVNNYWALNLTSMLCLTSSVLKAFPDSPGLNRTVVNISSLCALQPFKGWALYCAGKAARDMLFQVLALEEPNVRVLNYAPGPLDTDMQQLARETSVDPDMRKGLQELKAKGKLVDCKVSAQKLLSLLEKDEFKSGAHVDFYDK

Cc1c(C(=O)N2CCCC(C(F)(F)F)C2)cnn1-c1nc2c(c(=O)[nH]1)CCC2 (stereo not drawn) [Q-0450]
IC50 [1]: 300 nM
IC50 [2]: 5 nM

Cc1nc(-n2ncc(C(=O)N3CCc4ccccc4C3)c2C)[nH]c(=O)c1Cl [Q-0456]
IC50 [1]: 500 nM
IC50 [2]: 8 nM

Cc1nn(-c2nc3ccsc3c(=O)[nH]2)c(C)c1C(=O)N1CCc2ccccc2C1 [Q-0458]
IC50 [1]: 400 nM
IC50 [2]: 6 nM

Cc1cc(-n2cc(C(=O)N3CCC(C(F)(F)F)CC3)cn2)[nH]c(=O)c1 [Q-0460, 4-methyl-6-{4-[4-(trifluoromethyl)piperidine-1-carbonyl]-1H-pyrazol-1-yl}-1,2-dihydropyridin-2-one]
IC50 [1]: 600 nM
IC50 [2]: 3 nM

COC1CCN(C(=O)c2cnn(-c3nc4c(c(=O)[nH]3)CCC4)c2C)CC1 [Q-0461]
IC50 [1]: 400 nM
IC50 [2]: 3 nM

Cc1c(C(=O)N2CCC(Oc3ccccc3)CC2)cnn1-c1nc2c(c(=O)[nH]1)CCC2 [Q-0462]
IC50 [1]: 94 nM
IC50 [2]: 5 nM

O=C(c1cnn(-c2nc3c(c(=O)[nH]2)CCC3)c1C1CC1)N1CCC(C(F)(F)F)CC1 [Q-0463]
IC50 [1]: 300 nM
IC50 [2]: 4 nM

Cc1c(C(=O)N2CCC(C#N)CC2)cnn1-c1nc2c(c(=O)[nH]1)CCC2 [Q-0464]
IC50 [1]: 300 nM
IC50 [2]: 3 nM

O=c1[nH]c(-c2ccc(Br)cn2)nc2c1CCC2 [Q-0465]
IC50 [1]: 150000 nM
IC50 [2]: 300 nM

Cc1c(C(=O)N2CCC(C(F)(F)F)CC2)cnn1-c1cc(C(F)(F)F)cc(=O)[nH]1 [Q-0466, 6-{5-methyl-4-[4-(trifluoromethyl)piperidine-1-carbonyl]-1H-pyrazol-1-yl}-4-(trifluoromethyl)-1,2-dihydropyridin-2-one]
IC50 [1]: 59 nM
IC50 [2]: 1 nM

Cc1c(C(=O)N2CCCC(Oc3ccccc3)C2)cnn1-c1nc2c(c(=O)[nH]1)CCC2 (stereo not drawn) [Q-0468]
IC50 [1]: 200 nM
IC50 [2]: 7 nM

Cc1c(C(=O)N2CCC(C(C)(C)C#N)CC2)cnn1-c1nc2c(c(=O)[nH]1)CCC2 [Q-0469]
IC50 [1]: 37 nM
IC50 [2]: 4 nM

COC1CN(C(=O)c2cnn(-c3nc4c(c(=O)[nH]3)CCC4)c2C)C1 [Q-0470]
IC50 [1]: 1000 nM
IC50 [2]: 5 nM

COC(=O)c1ccc(-c2nc3c(c(=O)[nH]2)CCC3)nc1 [Q-0471]
IC50 [1]: 16000 nM
IC50 [2]: 80 nM

O=C(c1ccc(-c2nc3c(c(=O)[nH]2)CCC3)nc1)N1CCC(C(F)(F)F)CC1 [Q-0472, 2-{5-[4-(trifluoromethyl)piperidine-1-carbonyl]pyridin-2-yl}-3H,4H,5H,6H,7H-cyclopenta[d]pyrimidin-4-one]
IC50 [1]: 17000 nM
IC50 [2]: 200 nM

Cc1c(C(=O)N2CCC(C#N)(c3ccccc3)CC2)cnn1-c1nc2c(c(=O)[nH]1)CCC2 [Q-0473]
IC50 [1]: 92 nM
IC50 [2]: 6 nM

Cc1c(C(=O)N2CCC(CC(F)(F)F)CC2)cnn1-c1nc2c(c(=O)[nH]1)CCC2 [Q-0476]
IC50 [1]: 56 nM
IC50 [2]: 3 nM

Cc1c(C(=O)N2CCC(Oc3ccccc3)C2)cnn1-c1nc2c(c(=O)[nH]1)CCC2 (stereo not drawn) [Q-0477]
IC50 [1]: 91 nM
IC50 [2]: 5 nM

COC1CCN(C(=O)c2cnn(-c3nc4c(c(=O)[nH]3)CCC4)c2C)C1 (stereo not drawn) [Q-0478]
IC50 [1]: 1400 nM
IC50 [2]: 6 nM

Cc1c(C(=O)N2CC(c3ccccc3)C2)cnn1-c1nc2c(c(=O)[nH]1)CCC2 [Q-0479]
IC50 [1]: 100 nM
IC50 [2]: 6 nM

Cc1c(C(=O)O)cnn1-c1nc2c(c(=O)[nH]1)CCC2 [Q-0481, 5-methyl-1-{4-oxo-3H,4H,5H,6H,7H-cyclopenta[d]pyrimidin-2-yl}-1H-pyrazole-4-carboxylic acid]
IC50 [1]: 95000 nM
IC50 [2]: 30 nM

COC1CCCN(C(=O)c2cnn(-c3nc4c(c(=O)[nH]3)CCC4)c2C)C1 (stereo not drawn) [Q-0482]
IC50 [1]: 1000 nM
IC50 [2]: 8 nM

Cc1c(C(=O)N2CCC(O)(c3ccccc3)CC2C)cnn1-c1nc2c(c(=O)[nH]1)CCC2 (stereo not drawn) [Q-0483]
IC50 [1]: 49 nM
IC50 [2]: 4 nM

Cc1ccccc1N1CCN(C(=O)c2cnn(-c3nc4c(c(=O)[nH]3)CCC4)c2C)CC1 [Q-0485]
IC50 [1]: 62 nM
IC50 [2]: 9 nM

Cc1c(C(=O)N(C)Cc2nnc(-c3ccc(Cl)cc3)o2)cnn1-c1nc2c(c(=O)[nH]1)CCC2 [Q-0486]
IC50 [1]: 100 nM
IC50 [2]: 6 nM

Cc1c(C(=O)N(CCC#N)C2CCCCC2)cnn1-c1nc2c(c(=O)[nH]1)CCC2 [Q-0487]
IC50 [1]: 600 nM
IC50 [2]: 3 nM

Cc1c(C(=O)N2CCC(c3ccccc3)CC2)cnn1-c1nc2[nH]ccc2c(=O)[nH]1 [Q-0488]
IC50 [1]: 1200 nM
IC50 [2]: 20 nM

Cc1c(C(=O)N2Cc3ccccc3C[C@H]2C(=O)NC(C)(C)C)cnn1-c1nc2c(c(=O)[nH]1)CCC2 [Q-0489]
IC50 [1]: 53 nM
IC50 [2]: 8 nM

CCN(Cc1ccccc1)C(=O)c1cnn(-c2nc3c(c(=O)[nH]2)CCC3)c1C [Q-0490]
IC50 [1]: 100 nM
IC50 [2]: 7 nM

Cc1c(C(=O)N2CCC(Cc3ccccc3)CC2)cnn1-c1nc2c(c(=O)[nH]1)CCC2 [Q-0491]
IC50 [1]: 37 nM
IC50 [2]: 20 nM

Cc1c(C(=O)N(C)C2CCCCC2)cnn1-c1nc2c(c(=O)[nH]1)CCC2 [Q-0492]
IC50 [1]: 200 nM
IC50 [2]: 8 nM

Cc1c(C(=O)N(Cc2ccccc2)[C@@H](C)c2ccccc2)cnn1-c1nc2c(c(=O)[nH]1)CCC2 [Q-0493]
IC50 [1]: 29 nM
IC50 [2]: 30 nM

Cc1c(CN2CCCCC2=O)cnn1-c1nc2c(c(=O)[nH]1)CCC2 [Q-0494, 1-[(5-methyl-1-{4-oxo-3H,4H,5H,6H,7H-cyclopenta[d]pyrimidin-2-yl}-1H-pyrazol-4-yL)methyl]piperidin-2-one]
IC50 [1]: 300 nM
IC50 [2]: 6 nM

Cc1c(C(=O)N2CCC(c3ccccc3)CC2)cnn1-c1nc2ccsc2c(=O)[nH]1 [Q-0495]
IC50 [1]: 51 nM
IC50 [2]: 5 nM

Cc1c(C(=O)N2CCC[C@@H]2C(=O)OCc2ccccc2)cnn1-c1nc2c(c(=O)[nH]1)CCC2 [Q-0496]
IC50 [1]: 400 nM
IC50 [2]: 7 nM

Cc1c(C(=O)N(C)CCc2c[nH]c3ccccc23)cnn1-c1nc2c(c(=O)[nH]1)CCC2 [Q-0497]
IC50 [1]: 400 nM
IC50 [2]: 9 nM

Cc1c(C(=O)N2CCC(c3c[nH]c4ccccc34)CC2)cnn1-c1nc2c(c(=O)[nH]1)CCC2 [Q-0498]
IC50 [1]: 30 nM
IC50 [2]: 20 nM

Cc1c(C(=O)N2CCC(c3nc4ccccc4s3)CC2)cnn1-c1nc2c(c(=O)[nH]1)CCC2 [Q-0499]
IC50 [1]: 44 nM
IC50 [2]: 20 nM

Cc1c(C(=O)N(CC2COc3ccccc3O2)C(C)C)cnn1-c1nc2c(c(=O)[nH]1)CCC2 (stereo not drawn) [Q-0500]
IC50 [1]: 97 nM
IC50 [2]: 30 nM

Cc1ccc(C2(C)CN(C(=O)c3cnn(-c4nc5c(c(=O)[nH]4)CCC5)c3C)CCO2)cc1 (stereo not drawn) [Q-0501]
IC50 [1]: 200 nM
IC50 [2]: 9 nM

Cc1c(C(=O)N(CCc2ccccc2)CC(O)C(F)(F)F)cnn1-c1nc2c(c(=O)[nH]1)CCC2 (stereo not drawn) [Q-0502]
IC50 [1]: 400 nM
IC50 [2]: 20 nM

Cc1c(C(=O)N2CCC(S(=O)(=O)c3ccccc3)CC2)cnn1-c1nc2c(c(=O)[nH]1)CCC2 [Q-0504]
IC50 [1]: 58 nM
IC50 [2]: 4 nM

Cc1c(C(=O)N2CCCCC2c2cccnc2)cnn1-c1nc2c(c(=O)[nH]1)CCC2 (stereo not drawn) [Q-0505]
IC50 [1]: 100 nM
IC50 [2]: 4 nM

Cc1c(C(=O)N(C)Cc2ccc3ncccc3c2)cnn1-c1nc2c(c(=O)[nH]1)CCC2 [Q-0506]
IC50 [1]: 200 nM
IC50 [2]: 3 nM

Cc1c(C(=O)N2CCN(C(=O)OCc3ccccc3)C(C)C2)cnn1-c1nc2c(c(=O)[nH]1)CCC2 (stereo not drawn) [Q-0507]
IC50 [1]: 200 nM
IC50 [2]: 10 nM

O=C(c1ccnc(-c2nc3c(c(=O)[nH]2)CCC3)c1)N1CCC(C(F)(F)F)CC1 [Q-0508]
IC50 [1]: 2000 nM
IC50 [2]: 30 nM

Cc1c(C(=O)N2C3CCC2CC(O)(c2ccccc2)C3)cnn1-c1nc2c(c(=O)[nH]1)CCC2 (stereo not drawn) [Q-0509]
IC50 [1]: 68 nM
IC50 [2]: 3 nM

Cc1c(C(=O)N2CCC(c3ccccc3)C2)cnn1-c1nc2c(c(=O)[nH]1)CCC2 (stereo not drawn) [Q-0510]
IC50 [1]: 100 nM
IC50 [2]: 5 nM

O=C(c1cnn(-c2cc3ccsc3c(=O)[nH]2)c1)N1CCC(C(F)(F)F)CC1 [Q-0511, 5-{4-[4-(trifluoromethyl)piperidine-1-carbonyl]-1H-pyrazol-1-yl}-6H,7H-thieno[2,3-c]pyridin-7-one]
IC50 [1]: 300 nM
IC50 [2]: 3 nM

Cc1c(C(=O)N2C3CCC2CC(c2ccccc2)C3)cnn1-c1nc2c(c(=O)[nH]1)CCC2 (stereo not drawn) [Q-0513]
IC50 [1]: 47 nM
IC50 [2]: 10 nM

COC1(c2ccccc2)CCN(C(=O)c2cnn(-c3nc4c(c(=O)[nH]3)CCC4)c2C)CC1 [Q-0514]
IC50 [1]: 57 nM
IC50 [2]: 7 nM

O=C(c1ccnc(-c2nc3ccsc3c(=O)[nH]2)c1)N1CCC(C(F)(F)F)CC1 [Q-0515]
IC50 [1]: 5300 nM
IC50 [2]: 40 nM

O=C(c1cnn(-c2nc3ccsc3c(=O)[nH]2)c1)N1CCC(C(F)(F)F)CC1 [Q-0517]
IC50 [1]: 100 nM
IC50 [2]: 2 nM

COC1(C)CCN(C(=O)c2cnn(-c3nc4c(c(=O)[nH]3)CCC4)c2C)CC1 [Q-0520]
IC50 [1]: 200 nM
IC50 [2]: 3 nM

Cc1c(C(=O)N2CCC(OCC(F)(F)F)CC2)cnn1-c1nc2c(c(=O)[nH]1)CCC2 [Q-0521]
IC50 [1]: 100 nM
IC50 [2]: 8 nM

O=c1[nH]c(-c2cc(S(=O)(=O)N3CCC(C(F)(F)F)CC3)ccn2)nc2c1CCC2 [Q-0522]
IC50 [1]: 10000 nM
IC50 [2]: 300 nM

N#CC1(c2ccccc2)CCN(C(=O)c2cnn(-c3nc4ccsc4c(=O)[nH]3)c2)CC1 [Q-0523]
IC50 [1]: 100 nM
IC50 [2]: 20 nM

O=C(c1cnn(-c2nc3ccsc3c(=O)[nH]2)c1)N1CCC(S(=O)(=O)c2ccccc2)CC1 [Q-0524]
IC50 [1]: 1100 nM
IC50 [2]: 4 nM

O=C(c1cnn(-c2nc3c(c(=O)[nH]2)CCC3)c1)N1CCC(C(F)(F)F)CC1 [Q-0526, 2-{4-[4-(trifluoromethyl)piperidine-1-carbonyl]-1H-pyrazol-1-yl}-3H,4H,5H,6H,7H-cyclopenta[d]pyrimidin-4-one]
IC50 [1]: 28 nM
IC50 [2]: 3 nM

O=C(c1cnn(-c2nc3ccsc3c(=O)[nH]2)c1)N1CCC(c2c[nH]c3ccccc23)CC1 [Q-0527]
IC50 [1]: 45 nM
IC50 [2]: 30 nM
